Test results: patent US10377741B2, “Substituted heteroaryl aldehyde compounds and methods for their use in increasing tissue oxygenation” (Global Blood Therapeutics, Inc., priority 2011, dated 2019)

Assays:
[1] = target: T1, purified Hemoglobin S (HbS) (Homo sapiens, UniProt P68871+P69905, E7V); test: Modulation of hemoglobin oxygen affinity: oxygen equilibrium curves (HEMOX) in purified HbS; type: biochemical, human (homozygous sickle cell patients); settings: compound at 30 μM; 25 μM purified HbS, 45 min at 37° C.
T1 construct: HbS was purified by a modified procedure; from tissue; host or cells: blood of homozygous sickle cell patients (CHORI); for the polymerization assay purified by the CRO VIRUSYS
In short: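 HbS from homozygous sickle cell patient blood, 25 μM in HEMOX buffer pH 7.4, incubated 45 min at 37° C with compound (30 μM unless noted). Air-saturated then deoxygenated with N2; p50 from Hill fit; delta p50% = (control p50 − treated p50)/control p50 × 100.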

purified HBS = target: T2, purified HBS (Homo sapiens, UniProt P68871+P69905, E7V); test: Polymerization assay (delay time of HbS polymerization); type: biochemical, human (homozygous sickle cell patients); settings: percent delay (% DT) vs HBS alone; 50 μM purified HBS, 1.8 M potassium phosphate pH 7.4
T2 construct: HbS was purified by a modified procedure; from tissue; host or cells: blood of homozygous sickle cell patients (CHORI); for the polymerization assay purified by the CRO VIRUSYS
Description: Polymerization assays are carried out in vitro using purified HBS exchanged into 1.8 M potassium phosphate buffer at pH 7.4. Using a slightly modified protocol (Antonini and Brunori, 1971), HbS is purified by the CRO VIRUSYS, from blood obtained from homozygous sickle cell patients through the Hemoglobinopathy Center at Children's Hospital Oakland Research Institute (CHORI) with Institutional Review Board approval. Compounds are prepared in 100% DMSO and a desired amount is added to 50 μM of purified HBS at a final DMSO concentration of 0.3%. Final potassium phosphate concentration is adjusted to 1.8 M using a combination of 2.5 M potassium phosphate stock solution and water at pH 7.4. The reaction mixture is incubated for an hour at 37° C. and then transferred into a 24-well plate for deoxygenation in a glove box containing 99.5% nitrogen and 0.5% oxygen. The 24-well plate is not covered and incubated at 4° C. on a plate cooler inside the glove box for one and a half hours. Fifty μL of the reaction mixture is transferred into a 96-well plate and the absorbance at 700 nm is measured every minute for one hour at 37° C. in a plate reader located inside the glove box. A plot of the absorbance against time is fitted using a Boltzman sigmoidal fit and the delay time (from zero to time at half Vmax) is measured. To compare and rank compounds, delay times are expressed as percent delay (% DT), which is defined as the difference in delay times for HBS/compound and HBS alone multiplied by 100 and divided by the delay time for HBS alone.
Compounds listed below have been tested in the polymerization assay. Activity ranges are defined by the number of dagger (†) symbols indicated. † denotes activity ≥40% but ≤80%; †† denotes activity >80% but ≤120%; ††† denotes activity >120% but ≤140%; †††† denotes activity >160%.

HbS/A = target: T3, HbS/A (Homo sapiens, UniProt P68871+P69905, E7V); test: R/T assay (relaxed-to-tense transition under deoxygenated conditions); type: biochemical, human (homozygous sickle cell patients); settings: 3 μM HbS/A, % R remaining vs no treatment
T3 construct: A mixture of HbS/A was purified from blood; from tissue; host or cells: blood of homozygous sickle cell patients (CHORI)
In short: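 Purified HbS/A (3 μM final) incubated 1 hr at 37° C with compounds (3 μM to 100 μM) in potassium phosphate buffer pH 7.4 with 30 μM DPG, then deoxygenated under N2 with 300–700 nm spectra every 5 min for 2 hours. Delta R is % R state retained versus untreated, by linear regression over all wavelengths.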

whole blood = test: Whole blood assay: oxygen equilibrium curves of whole blood; type: cell-based, human (homozygous sickle cell patients); settings: compound at 1000 μM; hematocrit 20%, 1 hour at 37° C.
In short: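 Homozygous sickle cell patient blood, hematocrit 20% in autologous plasma, incubated 1 h at 37° C with or without compound (1000 μM unless noted). Diluted into Hemox buffer pH 7.4, oxygenated then deoxygenated with nitrogen; OEC fitted to Hill model for p50, reported as delta p50%.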

SMILES	melting point [°C]	delta p50% [1]	% delta Delay (purified HBS)	delta R (HbS/A; compound at 9 μM)	delta R (HbS/A; compound at 30 μM)	delta R (HbS/A; compound at 3 μM)	delta p50% Values for Whole Blood Assay (whole blood)
Cl.O=Cc1ccncc1OCc1ccc(C(=O)O)cn1	192 to 194	–	–	–	–	–	–
O=Cc1ccncc1OCc1cccc(C(=O)O)c1 [Compound 169, 3-(((4-formylpyridin-3-yl)oxy)methyl)benzoic acid]	–	++ (a delta p50% of between 30 and 50)	††† (activity >120% but ≤140%)	++ (a delta R of between 30 and 50)	–	–	++ (a delta p50% of between 30 and 50)
CC(C)n1nccc1-c1ncccc1COc1cccnc1C=O [Compound 176, 3-((2-(1-isopropyl-1H-pyrazol-5-yl)pyridin-3-yl)methoxy)picolinaldehyde]	–	+++ (a delta p50% of 50 or greater)	† (activity ≥40% but ≤80%)	+ (a delta R of between 0 and 30)	–	–	+++ (a delta p50% of 50 or greater)
Cc1ccc(OCc2cccnc2-c2ccnn2C(C)C)c(C=O)n1 [Compound 177, 3-((2-(1-isopropyl-1H-pyrazol-5-yl)pyridin-3-yl)methoxy)-6-methylpicolinaldehyde]	–	+++ (a delta p50% of 50 or greater)	† (activity ≥40% but ≤80%)	–	–	+ (a delta R of between 0 and 30)	+++ (a delta p50% of 50 or greater)
CC(C)n1nccc1-c1ncccc1COc1cnc(OC(F)F)cc1C=O [Compound 178, 2-(difluoromethoxy)-5-((2-(1-isopropyl-1H-pyrazol-5-yl)pyridin-3-yl)methoxy)isonicotinaldehyde]	–	++ (a delta p50% of between 30 and 50)	† (activity ≥40% but ≤80%)	+ (a delta R of between 0 and 30)	–	–	++ (a delta p50% of between 30 and 50)
COCCOc1cc(C=O)c(OCc2cccnc2-c2ccnn2C(C)C)cn1 [Compound 180, 5-((2-(1-isopropyl-1H-pyrazol-5-yl)pyridin-3-yl)methoxy)-2-(2-methoxyethoxy)isonicotinaldehyde]	–	+++ (a delta p50% of 50 or greater)	† (activity ≥40% but ≤80%)	–	++ (a delta R of between 30 and 50)	–	+++ (a delta p50% of 50 or greater)
COc1cc(C=O)c(OCc2nccnc2-c2ccnn2C(C)C)cn1 [Compound 181, 5-((3-(1-isopropyl-1H-pyrazol-5-yl)pyrazin-2-yl)methoxy)-2-methoxyisonicotinaldehyde]	–	+++ (a delta p50% of 50 or greater)	††† (activity >120% but ≤140%)	+ (a delta R of between 0 and 30)	–	–	+++ (a delta p50% of 50 or greater)
CC(C)n1nccc1-c1ncccc1COc1cncc(O)c1C=O [Compound 186, 3-hydroxy-5-((2-(1-isopropyl-1H-pyrazol-5-yl)pyridin-3-yl)methoxy)isonicotinaldehyde]	–	+++ (a delta p50% of 50 or greater)	†††† (activity >160%)	–	+++ (a delta R of 50 or greater)	–	+++ (a delta p50% of 50 or greater)
O=Cc1c(O)cncc1OCc1ccccc1 [Compound 187, 3-(benzyloxy)-5-hydroxyisonicotinaldehyde]	–	++ (a delta p50% of between 30 and 50)	†† (activity >80% but ≤120%)	+++ (a delta R of 50 or greater)	–	–	+ (a delta p50% of between 0 and 29)
COc1cc(C=O)c(OCc2cccnc2-c2ccnn2C2CCCC2)cn1 [Compound 198, 5-((2-(1-cyclopentyl-1H-pyrazol-5-yl)pyridin-3-yl)methoxy)-2-methoxyisonicotinaldehyde]	–	+++ (a delta p50% of 50 or greater)	† (activity ≥40% but ≤80%)	–	++ (a delta R of between 30 and 50)	–	+++ (a delta p50% of 50 or greater)
CS(=O)(=O)NC(=O)c1ccc(COc2cnccc2C=O)nc1 [Compound 206, 2,2,2-trifluoroacetic acid:6-(((4-formylpyridin-3-yl)oxy)methyl)-N-(methylsulfonyl)nicotinamide (2:1)]	102 to 104	–	††† (activity >120% but ≤140%)	+ (a delta R of between 0 and 30)	–	–	+++ (a delta p50% of 50 or greater)

Now from value to molecule, other results behind:

melting point [°C]	delta p50% [1]	% delta Delay (purified HBS)	delta R (HbS/A; compound at 9 μM)	delta R (HbS/A; compound at 30 μM)	delta R (HbS/A; compound at 3 μM)	SMILES	delta p50% Values for Whole Blood Assay (whole blood)
–	+++ (a delta p50% of 50 or greater)	† (activity ≥40% but ≤80%)	–	+++ (a delta R of 50 or greater)	–	CCCn1nccc1-c1ncccc1COc1cnc(OC)cc1C=O [Compound 173, 2-methoxy-5-((2-(1-propyl-1H-pyrazol-5-yl)pyridin-3-yl)methoxy)isonicotinaldehyde]	+++ (a delta p50% of 50 or greater)
–	+++ (a delta p50% of 50 or greater)	†† (activity >80% but ≤120%)	–	++ (a delta R of between 30 and 50)	–	COc1cc(C=O)c(OCc2cccnc2-c2ccnn2CC(F)(F)F)cn1 [Compound 174, 2-methoxy-5-((2-(1-(2,2,2-trifluoroethyl)-1-pyrazol-5-yl)pyridin-3-yl)methoxy)isonicotinaldehyde]	+++ (a delta p50% of 50 or greater)
–	+++ (a delta p50% of 50 or greater)	†† (activity >80% but ≤120%)	–	++ (a delta R of between 30 and 50)	–	COc1cc(C=O)c(OCc2cccnc2-c2ccnn2CC(F)F)cn1 [Compound 175, 5-((2-(1-(2,2-difluoroethyl)-1H-pyrazol-5-yl)pyridin-3-yl)methoxy)-2-methoxyisonicotinaldehyde]	+++ (a delta p50% of 50 or greater)
–	+++ (a delta p50% of 50 or greater)	††† (activity >120% but ≤140%)	–	+++ (a delta R of 50 or greater)	–	COc1cc(C=O)c(OCc2cccnc2-c2ccnn2C2CCC2)cn1 [Compound 195, 5-((2-(1-cyclobutyl-1H-pyrazol-5-yl)pyridin-3-yl)methoxy)-2-methoxyisonicotinaldehyde]	+++ (a delta p50% of 50 or greater)
–	++ (a delta p50% of between 30 and 50)	† (activity ≥40% but ≤80%)	+ (a delta R of between 0 and 30)	–	–	COc1cc(C=O)c(OCc2cccnc2-c2ccnn2CC2CCCCC2)cn1 [Compound 197, 5-((2-(1-(cyclohexylmethyl)-1H-pyrazol-5-yl)pyridin-3-yl)methoxy)-2-methoxyisonicotinaldehyde]	+++ (a delta p50% of 50 or greater)
–	+++ (a delta p50% of 50 or greater)	††† (activity >120% but ≤140%)	+ (a delta R of between 0 and 30)	–	–	COc1cc(C=O)c(OCc2cccnc2-c2ccnn2CC(=O)O)cn1 [Compound 199, 2-(5-(3-((4-formyl-6-methoxypyridin-3-yloxy)methyl)pyridin-2-yl)-1H-pyrazol-1-yl)acetic acid]	+ (a delta p50% of between 0 and 29)
–	+++ (a delta p50% of 50 or greater)	††† (activity >120% but ≤140%)	+ (a delta R of between 0 and 30)	–	–	COc1cc(C=O)c(OCc2cccnc2-c2ccnn2CCC(=O)O)cn1 [Compound 202, 3-(5-(3-(((4-formyl-6-methoxypyridin-3-yl)oxy)methyl)pyridin-2-yl)-1H-pyrazol-1-yl)propanoic acid]	+ (a delta p50% of between 0 and 29)
